Measurements published in publication PMC6426286 (2019).

How the values were obtained:
[1] = system: GVP1 (guanidine-II riboswitch P1 stem-loop) (RNA, riboswitch) GGUGGGGACGACCCCACC; assay: ITC; conditions: 100 mM KCl, 10 mM MgCl2; 40 mM HEPES pH 7.2, 298 K; one-set-of-sites fit
[2] = system: GVP2 (guanidine-II riboswitch P2 stem-loop) (RNA, riboswitch) GCGGGGACGACCCCGC; assay: ITC; conditions: 100 mM KCl, 10 mM MgCl2; 40 mM HEPES pH 7.2, 298 K; one-set-of-sites fit
[3] = system: GVP1P2 (complete guanidine-II riboswitch) (RNA, riboswitch) GGUGAGGACGACCUCACCCUUCGCAAAGUUUCGCGGGGACGACCCCGC; assay: ITC; conditions: 100 mM KCl, 10 mM MgCl2; 40 mM HEPES pH 7.2, 298 K; one-set-of-sites fit
[4] = system: G. violaceus P1 stem-loop used for crystallization (RNA, riboswitch, 5-bromocytidine at 17) GGUGGGGACGACCCCACC; assay: X-ray crystallography, 1.66 Å; conditions: 100 mM KCl, 2 mM MgCl2 (RNA folding); ligand soaked into ligand-free crystals; 5 mM HEPES pH 7.6 (RNA folding)
[5] = system: G. violaceus P1 stem-loop used for crystallization (RNA, riboswitch, 5-bromocytidine at 17) GGUGGGGACGACCCCACC; assay: X-ray crystallography, 1.41 Å; conditions: 100 mM KCl, 2 mM MgCl2 (RNA folding); ligand soaked into ligand-free crystals; 5 mM HEPES pH 7.6 (RNA folding)
[6] = system: G. violaceus P1 stem-loop used for crystallization (RNA, riboswitch, 5-bromocytidine at 17) GGUGGGGACGACCCCACC; assay: X-ray crystallography, 1.54 Å; conditions: 100 mM KCl, 2 mM MgCl2 (RNA folding); ligand soaked into ligand-free crystals; 5 mM HEPES pH 7.6 (RNA folding)

Kd [1] [µM]	Kd [2] [µM]	Kd [3] [µM]	binding [4]	binding [5]	binding [6]	SMILES
68 ± 6	66 ± 8	33 ± 4				N=C(N)N
4.7 ± 0.2	5.9 ± 4	2.2 ± 0.5	yes			N=C(N)NCCCCNC(=N)N
		5.1 ± 0.8		yes		N=C(N)NCCCCCNC(=N)N
					yes	CCNC(=N)N
